What is called melting point is the temperature, or range, at which the solid turns liquid.

Test system in the first series: not given
Test: not given
Settings: not given
In turn, `COc1cc(-c2nc3ccccc3n2C2CCC2)c(C2CC2)c(O)c1O` [Example 174, 4-(1-cyclobutyl-1H-benzo[d]imidazol-2-yl)-3-cyclopropyl-6-methoxybenzene-1,2-diol] had a melting point of 209 °C.

With `COc1ccc2[nH]c(-c3cc(OC)c(O)c(O)c3C)nc2c1` [Example 175, 6-methoxy-4-(5-methoxy-1H-benzo[d]imidazol-2-yl)-3-methylbenzene-1,2-diol], the melting point is 249.1 °C. Still for that read-out and setting: in the case of `COc1cc(-c2nc3ccc(S(C)(=O)=O)cc3n2C2(C)COC2)c(F)c(O)c1O` [Example 178, 3-fluoro-4-[6-methanesulfonyl-1-(3-methyloxetan-3-yl)-1H-1,3-benzodiazol-2-yl]-6-methoxybenzene-1,2-diol] it was 257.6 °C.

Compound `COc1cc(-c2nc3ccc(C#N)cc3n2C2(C)COC2)c(F)c(O)c1O` [Example 179, 2-(2-fluoro-3,4-dihydroxy-5-methoxyphenyl)-1-(3-methyloxetan-3-yl)-1H-1,3-benzodiazole-6-carbonitrile] showed a melting point of 209 °C. Turning to `COc1cc(-c2nc3ccc(C(N)=O)cc3n2C2(C)COC2)c(F)c(O)c1O` [Example 180, 2-(2-fluoro-3,4-dihydroxy-5-methoxyphenyl)-1-(3-methyloxetan-3-yl)-1H-1,3-benzodiazole-6-carboxamide], the melting point worked out at 170.4 °C.

For another series, the target named is T1, Human TREX1 enzyme (amino acids 1-242) (Homo sapiens, UniProt Q9NSU2).
T1 construct: Human TREX1 enzyme (amino acids 1-242)
T1 sequence (Q9NSU2 1-242): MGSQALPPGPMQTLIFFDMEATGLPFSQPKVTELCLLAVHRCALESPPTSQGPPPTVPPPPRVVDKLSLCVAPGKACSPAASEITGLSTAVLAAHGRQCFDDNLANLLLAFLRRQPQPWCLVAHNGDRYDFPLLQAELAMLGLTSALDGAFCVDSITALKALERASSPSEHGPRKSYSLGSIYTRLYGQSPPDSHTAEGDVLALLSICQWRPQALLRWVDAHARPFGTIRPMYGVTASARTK
The experiment in a line: Human TREX1 enzymatic assay with dsDNA native oligonucleotide (Picogreen fluorescence). It counts as biochemical. The conditions noted are these: 2 mM dithiothreitol in assay buffer; 50 nM dsDNA oligonucleotide; 30 min preincubation at 25° C.; read-out: TREX1/Human + DTT IC50 AVG. Put shortly:
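Remaining dsDNA quantified by Picogreen fluorescence after EDTA quench, with no-enzyme and DMSO wells as controls. Reactions used 50 nM annealed oligonucleotide for 5–15 min at 25 °C, after a 30 min compound–enzyme preincubation (0.8–0.16 nM TREX1; 2% DMSO; pH 7.7 Tris, 5 mM MgCl2).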
As for `COc1cc(-c2nc3ccccc3n2C2CCC2)c(C2CC2)c(O)c1O` [Example 174, 4-(1-cyclobutyl-1H-benzo[d]imidazol-2-yl)-3-cyclopropyl-6-methoxybenzene-1,2-diol], the IC50 is 10000 to 100000 nM. For the compound `COc1ccc2[nH]c(-c3cc(OC)c(O)c(O)c3C)nc2c1` [Example 175, 6-methoxy-4-(5-methoxy-1H-benzo[d]imidazol-2-yl)-3-methylbenzene-1,2-diol], the IC50 is 10000 to 100000 nM. Regarding `COc1cc(-c2nc3ccc(S(C)(=O)=O)cc3n2C2(C)COC2)c(F)c(O)c1O` [Example 178, 3-fluoro-4-[6-methanesulfonyl-1-(3-methyloxetan-3-yl)-1H-1,3-benzodiazol-2-yl]-6-methoxybenzene-1,2-diol], the IC50 was 1000 to 10000 nM. As to `COc1cc(-c2nc3ccc(C#N)cc3n2C2(C)COC2)c(F)c(O)c1O` [Example 179, 2-(2-fluoro-3,4-dihydroxy-5-methoxyphenyl)-1-(3-methyloxetan-3-yl)-1H-1,3-benzodiazole-6-carbonitrile], the IC50 lay within 100 to 1000 nM. As for `COc1cc(-c2nc3ccc(C(N)=O)cc3n2C2(C)COC2)c(F)c(O)c1O` [Example 180, 2-(2-fluoro-3,4-dihydroxy-5-methoxyphenyl)-1-(3-methyloxetan-3-yl)-1H-1,3-benzodiazole-6-carboxamide], the IC50 is at most 100 nM. The same measure, in the same setting: next, `CNC(=O)c1ccc2nc(-c3cc(OC)c(O)c(O)c3F)n(C3(C)CCC3)c2c1` [Example 310, 2-(2-fluoro-3,4-dihydroxy-5-methoxyphenyl)-N-methyl-1-(1-methylcyclobutyl)-1H-benzo[d]imidazole-6-carboxamide]: at most 100 nM.

Regarding `COc1cc(-c2nc3cc(NC(C)=O)ccc3n2C2(C)COC2)c(C)c(O)c1O` [Example 311, N-(2-(3,4-dihydroxy-5-methoxy-2-methylphenyl)-1-(3-methyloxetan-3-yl)-1H-benzo[d]imidazol-5-yl)acetamide], the IC50 is 100 to 1000 nM.

On to `COc1cc(-c2nc3cc(NC(C)=O)ccc3n2C2(C)COC2)c(F)c(O)c1O` [Example 312, N-(2-(2-fluoro-3,4-dihydroxy-5-methoxyphenyl)-1-(3-methyloxetan-3-yl)-1H-benzo[d]imidazol-5-yl)acetamide], for which the IC50 was at most 100 nM.

In the case of `COc1cc(-c2nc3cc(NC(C)=O)ccc3n2C2CCC2)c(F)c(O)c1O` [Example 313, N-(1-cyclobutyl-2-(2-fluoro-3,4-dihydroxy-5-methoxyphenyl)-1H-benzo[d]imidazol-5-yl)acetamide], the IC50 was in the range of 100 to 1000 nM. Still for that read-out and setting: in the case of `COc1cc(-c2nc3ccccc3n2C2(C)COC2)c(C(F)(F)F)c(O)c1O` [Example 315, 6-methoxy-4-(1-(3-methyloxetan-3-yl)-1H-benzo[d]imidazol-2-yl)-3-(trifluoromethyl)benzene-1,2-diol] it was 10000 to 100000 nM. Same read-out and setting: in the case of `CNc1ccc2c(c1)nc(-c1cc(OC)c(O)c(O)c1F)n2C1(C)COC1` [Example 316, 3-fluoro-6-methoxy-4-(5-(methylamino)-1-(3-methyloxetan-3-yl)-1H-benzo[d]imidazol-2-yl)benzene-1,2-diol] it was 100 to 1000 nM; in that of `CNc1ccc2nc(-c3cc(OC)c(O)c(O)c3F)n(C3(C)COC3)c2c1` [Example 317, 3-fluoro-6-methoxy-4-(6-(methylamino)-1-(3-methyloxetan-3-yl)-1H-benzo[d]imidazol-2-yl)benzene-1,2-diol], 100 to 1000 nM. On the same count and under the same terms, in the case of `COc1cc(-c2nc3ccc(Nc4ccccc4)cc3n2C2(C)COC2)c(F)c(O)c1O` [Example 318, 3-fluoro-6-methoxy-4-(1-(3-methyloxetan-3-yl)-6-(phenylamino)-1H-benzo[d]imidazol-2-yl)benzene-1,2-diol] it was 100 to 1000 nM; in that of `COc1cc(-c2nc3cc(NCCO)ccc3[nH]2)cc(O)c1O` [Example 319, 5-(5-((2-hydroxyethyl)amino)-1H-benzo[d]imidazol-2-yl)-3-methoxybenzene-1,2-diol], 1000 to 10000 nM. In the case of `COc1cc(-c2nc3ccccc3n2C2CN(C)C2)c(C)c(O)c1O` [Example 320, 6-methoxy-3-methyl-4-(1-(1-methylazetidin-3-yl)-1H-benzo[d]imidazol-2-yl)benzene-1,2-diol], the IC50 was above 100000 nM. `COc1cc(-c2nc3ccccc3n2C2CN(C(C)=O)C2)c(C)c(O)c1O` [Example 321, 1-(3-(2-(3,4-dihydroxy-5-methoxy-2-methylphenyl)-1H-benzo[d]imidazol-1-yl)azetidin-1-yl)ethan-1-one]: the IC50 was above 100000 nM.

As to `COc1cc(-c2nc3ccccc3n2C2CN(S(C)(=O)=O)C2)c(C)c(O)c1O` [Example 322], the IC50 lay within 10000 to 100000 nM.

Take `COc1c(O)c(O)c(C)c(-c2nc3ccccc3n2C2CCC2)c1F` [Example 323, 4-(1-cyclobutyl-1H-benzo[d]imidazol-2-yl)-5-fluoro-6-methoxy-3-methylbenzene-1,2-diol]: the IC50 was 1000 to 10000 nM.

Regarding `COc1cc(-c2nc3ccccc3n2C2CC2)c(C)c(O)c1O` [Example 324, 4-(1-cyclopropyl-1H-benzo[d]imidazol-2-yl)-6-methoxy-3-methylbenzene-1,2-diol], the IC50 lay in the range of 1000 to 10000 nM. In the case of `CNS(=O)(=O)c1ccc2nc(-c3cc(OC)c(O)c(O)c3F)n(C3(C)COC3)c2c1` [Example 325, 2-(2-fluoro-3,4-dihydroxy-5-methoxyphenyl)-N-methyl-1-(3-methyloxetan-3-yl)-1H-benzo[d]imidazole-6-sulfonamide], the IC50 lay within 10000 to 100000 nM.

As to `COc1cc(-c2nc3ncccc3n2C2(C)COC2)c(F)c(O)c1O` [Example 326, 3-fluoro-6-methoxy-4-(1-(3-methyloxetan-3-yl)-1H-imidazo[4,5-b]pyridin-2-yl)benzene-1,2-diol], the IC50 was in the range of 1000 to 10000 nM.

As to `COc1cc(-c2nc3ccccc3n2C2CCC2)c(F)c(O)c1O` [Example 327, 4-(1-cyclobutyl-1H-benzo[d]imidazol-2-yl)-3-fluoro-6-methoxybenzene-1,2-diol], the IC50 fell in the range of 1000 to 10000 nM. For `COc1cc(-c2nc3ccccc3n2C23CC(C2)C3)c(F)c(O)c1O` [Example 328, 4-(1-(bicyclo[1.1.1]pentan-1-yl)-1H-benzo[d]imidazol-2-yl)-3-fluoro-6-methoxybenzene-1,2-diol], the IC50 is at most 100 nM. Regarding `COc1cc(-c2nc3ccccc3n2C2(C)CC2)c(F)c(O)c1O` [Example 329, 3-fluoro-6-methoxy-4-(1-(1-methylcyclopropyl)-1H-benzo[d]imidazol-2-yl)benzene-1,2-diol], the IC50 is 100 to 1000 nM. Still for that read-out and setting: next, `COc1cc(-c2nc3ccccc3n2C(C)(C)C)c(F)c(O)c1O` [Example 330, 4-(1-(tert-butyl)-1H-benzo[d]imidazol-2-yl)-3-fluoro-6-methoxybenzene-1,2-diol]: 100 to 1000 nM; `COc1cc(-c2nc3ccccc3n2-c2ccccc2)c(F)c(O)c1O` [Example 331, 3-fluoro-6-methoxy-4-(l-phenyl-1H-1,3-benzodiazol-2-yl)benzene-1,2-diol]: 1000 to 10000 nM; `Oc1cc(-c2nc3ccccc3n2C2CCC2)cc(OC(F)F)c1O` [Example 333, 5-(1-cyclobutyl-1H-benzo[d]imidazol-2-yl)-3-(difluoromethoxy)benzene-1,2-diol]: above 100000 nM.

As to `COc1cc(-c2nc3cc(O)ccc3n2C2CCC2)c(C)c(O)c1O` [Example 334, 4-(1-cyclobutyl-5-hydroxy-1H-benzo[d]imidazol-2-yl)-6-methoxy-3-methylbenzene-1,2-diol], the IC50 lay in the range of 100 to 1000 nM.

These data come from patent US20230234943A1, “TREX1 INHIBITORS AND USES THEREOF” (Tempest Therapeutics, Inc., priority 2020, published 2023).
